Measurements published in US10654838B2, “Aminopyridine compounds useful as inhibitors of protein prenylation” (INSTITUT NATIONAL DE LA SANTE ET DE LA RECHERCHE MEDICALE …, priority 2014, dated 2020).

Experiments:
prelamin A = assay: Western immunoblotting of prelamin A; format: cell-based, human; conditions: HGPS MSCs, optimal concentration
Procedure: Whole-cell lysates of MSC were collected, separated by SDS-PAGE, and transferred onto PVPF membrane by liquid transfer method. Blots were blocked in 10% skim milk (Bio-Rad) in tween 0.1% tris-buffered saline (TTBS) 1× one hour at room temperature. The primary antibodies used were a mouse anti-lamins A/C 1:200 (Millipore, JOL2), a rabbit anti-prelamin A 1/100 (ANTOO45, Diatheva) and a β-actin 1/200000 (Sigma). Membranes were incubated during the night at 4° C. Antigen-antibody binding was detected using horseradish peroxidaseconjugated species-specific secondary antibodies (GE-Healthcare, Little Chalfont, UK) followed by enhanced chemiluminescence Western blotting detection reagents (Perkin-Elmer, Waltham, USA).

HGPS MSCs = assay: Osteogenic differentiation (alkaline phosphatase activity); format: cell-based, human; conditions: 7 days of osteogenic differentiation
Procedure: MSC were seeded at 600 cells per well in 384 well plate in MSC culture medium and treated as previously described. After 72 hours, MSC medium was replaced by STEMPRO osteogenic induction medium (Invitrogen) in presence or not of the different drugs. After 7 days of treatment, cells were fixed with ethanol 95% and stained by adding either a colorimetric substrate of the alkaline phosphatase, the 5-Bromo-4-chloro-3-indolyl phosphate/Nitro blue tetrazolium (NBT) (Sigma-Aldrich) or a chromogenic substrate of this enzyme (absorbance at 405 nm), the p-Nitrophenyl Phosphate (pNPP) (Pierce Biotechnology).

FPPS [1] = target: T1, FPPS (Homo sapiens, UniProt P14324); assay: Surface plasmon resonance on immobilized FPPS; format: binding
T1 sequence (P14324 1-419): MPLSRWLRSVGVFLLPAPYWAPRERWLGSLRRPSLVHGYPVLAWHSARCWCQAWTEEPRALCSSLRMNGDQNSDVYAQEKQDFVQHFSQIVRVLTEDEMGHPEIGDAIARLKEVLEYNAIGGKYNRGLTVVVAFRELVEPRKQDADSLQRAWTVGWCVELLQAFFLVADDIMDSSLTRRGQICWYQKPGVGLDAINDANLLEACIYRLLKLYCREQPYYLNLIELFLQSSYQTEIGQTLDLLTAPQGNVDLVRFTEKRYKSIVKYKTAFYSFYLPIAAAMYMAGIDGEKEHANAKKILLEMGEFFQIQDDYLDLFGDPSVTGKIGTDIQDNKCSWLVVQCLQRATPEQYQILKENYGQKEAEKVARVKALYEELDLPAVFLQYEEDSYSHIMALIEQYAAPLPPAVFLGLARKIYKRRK
Procedure: Surface plasmon resonance (SPR) was measured using a BIAcore 3000 instrument at 25° C. FPPS (2800 RU) was immobilized on flow cells of a CM5-chip. The running buffer was HBSEP pH 7.4 (20 mM Hepes, 150 mM NaCl, and 0.005% P20). Regeneration was performed with 10 mM glycine, pH 3.0. […] Data were evaluated using Scrubber2 (Biologic software) and BIAeval software (BIAcore).

FT = target: T2, FT (Homo sapiens, UniProt P49354+P49356); assay: FT activity assay (Farnesyltransferase [3H] SPA); format: biochemical; conditions: concentration inducing 50% of the maximum inhibiting effect of the compound
T2 construct: Reactions were started by adding 40 μL of treated or untreated cell lysate; endogenous in cells; host or cells: HGPS MSCs (cell lysate)
Procedure: (§1) Cell pellet of HGPS MSCs were resuspended in 25 mM Tris-HCl pH 7.4, 1 mM DTT, 1 mM MgCl2, 1 EDTA, 1 mM PMSF and centrifuged at 10,000×g for 10 min at 4° C. Protein content was determined using Lowry's method. Aliquots of cell lysate containing 100 μg of total proteins were incubated with tested substances at 37° C. for 30 min.
FT activity was determined by Famesyltransferase [3H] SPA enzyme assay (Amersham Life Science, Buckinghamshire, England). Briefly, FT activity was assayed in 20 μl of assay buffer containing 50 mmol/L Hepes, 30 mmol/L MgCl2, 20 mmol/L KCl and 5 mmol/L dithiothreitol, 20 μl of [3H]-FPP (12 pmol) and 20 μl of biotin lamin B. Reactions were started by adding 40 μL of treated or untreated cell lysate and incubated for 1 hour at 37° C. Reactions were stopped by the addition of 150 μL of stop reagent containing SPA bead and counted in a scintillation counter. FT activity was expressed as pmoles of incorporated [3H]-FPP into biotin lamin-B peptide per minute per milligram of total proteins (pmol/min/mg prot). Parallel samples were assayed to evaluate the total and the nonspecific radioactivity. In all experiments enzyme assays were carried out in triplicate.

FPPS [2] = target: T1, FPPS; assay: FPPS activity assay; format: biochemical; set-up: endogenous in cells; host or cells: HGPS MSCs (cell lysate); conditions: concentration inducing 50% of the maximum inhibiting effect of the compound
Procedure: as §1
FPPS assay was carried out with some modifications of the procedure of Krisans et al. (Krisans et al., 1994, The Journal of biological chemistry VOL. 269: 14165-14169) and described by Gupta et al. (Gupta et al., 1999, Eur J Med Chem, VOL. 43: 2751-2767). Briefly, FPPS was assayed in 150 μL containing 25 mmol/L Hepes, pH=7, 2 mmol/L MgCl2, 1 mmol/L dithiothreitol, 5 mmol/L KF, 1% A noctyl-β-glucopyranoside, 3.3 μmol/L [4-14C] IPP (18 Ci/mmol), 3 μmol/L unlabeled IPP and 20 μmol/L geranyl diphosphate. Reactions were started by adding 40 μL of treated or untreated cell lysate and incubated for 45 min at 37° C. Reactions were stopped by the addition of 150 μL 2.5 mol/L HCl in 80% ethanol containing 100 μg/mL farnesol as a carrier. The samples were hydrolyzed for 30 min at 37° C. to convert the FPP to farnesol and neutralized by the addition of 150 μL of 10% NaOH. The reaction product (farnesol) was extracted into 1 mL of N-hexane and an aliquot (200 μL) of the organic phase was used for radioactivity counting. Parallel samples were assayed to evaluate the total and the nonspecific radioactivity. In all experiments, enzyme assays were carried out in triplicate.

N#CC(c1ccccn1)c1ccnc(N2CCN(Cc3ccccc3F)CC2)n1 (stereo not drawn) [Mono-AP1, {2-[4-(2-fluoro-benzyl)-piperazin-1-yl]-pyrimidin-4-yl}-pyridin-2-yl-acetonitrile]
prelamin A level (Western blot) (prelamin A): increased | rescue of premature osteogenic differentiation (alkaline phosphatase activity) (HGPS MSCs): not significantly different to those observed following FTI treatment | direct interaction with FPPS (SPR), in words (FPPS [1]): confirmed the direct interactions | Kd (FPPS [1]; SPR, BIAcore 3000, 25° C., read-out: Kd (M), equilibrium dissociation constant): 2.4e-05 M | IC50 (FT): 3.46 µM | IC50 (FPPS [2]): 1.55 µM
